Data reported in article PMC5405074, “Receptor-Mediated Melanoma Targeting with Radiolabeled α-Melanocyte-Stimulating Hormone: Relevance of the Net Charge of the Ligand” (Frontiers in Endocrinology, 2017).
Marks after values point to notes of the source that are not given here. Non-standard residues stand in square brackets, D forms with d. Residues, ends and D or L forms follow the SMILES beside them. *: point of attachment. DOTA = O=C(O)CN1CCN(CC(=O)O)CCN(CC(=O)*)CCN(CC(=O)O)CC1; Nle = CCCC[C@H](N)C(=O)O

System: B16-F1 cells
Assay: In situ melanin assay in B16-F1 cells
Assay type: cell-based, mouse
Conditions: for Reduction of biological activity compared to DOTA-NAP-amide: melanin assay
Procedure: The biological activity of the α-MSH derivatives was assessed with an in situ melanin assay ([40]). Briefly, B16-F1 cells (2,500 cells per well in 100 µL) were distributed into 96-well flat-bottom cell culture plates. MEM without phenol red, supplemented with 10% heat-inactivated fetal calf serum, 2 mM L-glutamine, 0.31 mmol/L L-tyrosine, 1% non-essential amino acids, 1% vitamin solution, 50 IU/mL penicillin, and 50 µg/mL streptomycin, was used as culture medium. After overnight incubation at cell culture conditions mentioned above, concentrations of α-MSH derivatives ranging from 1 × 10^−8 to 1 × 10^−12 in 100-µL volumes were added (in threefold dilution steps), and the incubation was continued for an additional 72 h. Melanin production was quantified by determining the absorbance at 310 nm in a microplate reader.

Structure (SMILES): CCCC[C@H](NC(C)=O)C(=O)N[C@@H](CC(=O)O)C(=O)N[C@@H](Cc1c[nH]cn1)C(=O)N[C@H](Cc1ccccc1)C(=O)N[C@@H](CCCNC(=N)N)C(=O)N[C@@H](Cc1c[nH]c2ccccc12)C(=O)NCC(=O)N[C@@H](CCCCNC(=O)CN1CCN(CC(=O)O)CCN(CC(=O)O)CCN(CC(=O)O)CC1)C(=O)N[C@H](CC(=O)O)C(=O)N[C@H](CC(=O)O)C(=O)O [DOTA-NAP-D-Asp-D-Asp, Ac-Nle-Asp-His-D-Phe-Arg-Trp-Gly-Lys(DOTA)-D-Asp-D-Asp-OH] (Ac-[Nle]DH[dF]RWGK(DOTA)[dD][dD]-OH)
- Reduction of biological activity compared to DOTA-NAP-amide: > 10 fold
- Reduction of biological activity compared to DOTA-NAP-amide (listed as DOTA-NAP by D-Asp-D-Asp): around 11 fold
- Biological activity rEC50 [α-MSH = 1] (relative concentration vs. α-MSH (=1) inducing half-maximal melanin production by B16-F1 cells, 72 h, absorbance 310 nm, n = 3–13, ^c = P < 0.05 vs. DOTA-NAP-amide): 7.66 ± 0.33^c
